# Experimental data published in paper PMC12010937, “Evaluation of FXR Activity in Pollutants Identified in Sewage Sludge and Subsequent in Vitro and in Vivo Characterization of Metabolic Effects of Triphenyl Phosphate” (Environmental Health Perspectives, 2025).
# pIC50: −log10 of the molar value. “And” between values parts separate entries of the source, which are not always exact repeats. Identical values can stand only once. Counter-ions that a name gives are not always drawn. Like-named read-outs stand apart in the source and are kept apart here.
# Columns and labels:
# [1] = molecular target: T1, human FXR-LBD (GST-FXR-LBD) (Homo sapiens, UniProt Q96RI1); assay: HTRF coactivator recruitment assay, antagonist mode (in the presence of 50 μM CDCA); format: biochemical; conditions: for activity at 1.95 µM / activity at 3.9 µM / activity at 31.25 µM / activity at 62.5 µM / activity at 250 µM / activity at 0.98 µM / activity at 7.8 µM / activity at 125 µM / activity at […]: read-out: Relative antagonist activity (%); for Relative activity, antagonist mode: 50 μM compound in the presence of 50 μM CDCA, standardized against positive control DY268 (50 μM = 100%); for pIC50: read-out: IC50, inhibition of CDCA-induced coactivator recruitment to FXR
# T1 construct: the human FXR-LBD (residues 234–472) was expressed as a GST fusion protein GST-FXR-LBD; made in house; host or cells: E. coli BL21(DE3)
# T1 sequence (Q96RI1 234-472 isoform Q96RI1-2): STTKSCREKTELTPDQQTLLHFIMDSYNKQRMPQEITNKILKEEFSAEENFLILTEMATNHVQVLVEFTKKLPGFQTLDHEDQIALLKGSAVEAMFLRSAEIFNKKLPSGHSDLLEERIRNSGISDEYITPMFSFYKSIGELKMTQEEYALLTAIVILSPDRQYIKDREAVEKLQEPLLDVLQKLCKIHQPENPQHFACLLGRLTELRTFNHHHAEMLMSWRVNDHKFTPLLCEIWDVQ
# [2] = molecular target: T2, FXR (pCDNA3.1-hFXR, FXRE-luc) (Homo sapiens, UniProt Q96RI1); assay: cell-based; format: cell-based
# T2 construct: host or cells: HEK 293T
# T2 sequence (Q96RI1 1-486): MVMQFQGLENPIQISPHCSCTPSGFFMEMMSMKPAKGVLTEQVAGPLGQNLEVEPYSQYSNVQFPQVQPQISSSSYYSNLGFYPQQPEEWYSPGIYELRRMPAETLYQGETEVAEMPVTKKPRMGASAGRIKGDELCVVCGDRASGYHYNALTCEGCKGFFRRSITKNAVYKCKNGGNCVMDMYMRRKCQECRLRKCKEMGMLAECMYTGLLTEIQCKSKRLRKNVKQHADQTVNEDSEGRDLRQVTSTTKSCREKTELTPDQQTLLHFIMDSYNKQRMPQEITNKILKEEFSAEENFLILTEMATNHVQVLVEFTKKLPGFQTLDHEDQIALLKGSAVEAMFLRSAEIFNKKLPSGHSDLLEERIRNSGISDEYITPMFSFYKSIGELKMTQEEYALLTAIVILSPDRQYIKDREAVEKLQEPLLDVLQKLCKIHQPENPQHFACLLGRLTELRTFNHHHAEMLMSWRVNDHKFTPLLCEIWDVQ
# [3] = molecular target: T1, human FXR-LBD (GST-FXR-LBD); assay: HTRF coactivator recruitment assay, agonist mode; format: biochemical
# [4] = 1.95 μM compound + 50 μM CDCA, replicates
# [5] = 3.90 μM compound + 50 μM CDCA, replicates
# [6] = 31.25 μM compound + 50 μM CDCA, replicates
# [7] = 62.50 μM compound + 50 μM CDCA, replicates
# [8] = 250.00 μM compound + 50 μM CDCA, standardized to DMSO and 50 μM CDCA, replicates
# [9] = 50 μM compound, standardized against positive control CDCA (50 μM = 100%)
# [10] = 0.98 μM compound + 50 μM CDCA, replicates
# [11] = 7.80 μM compound + 50 μM CDCA, replicates
# [12] = 125.00 μM compound + 50 μM CDCA, replicates
# [13] = […] compound + 50 μM CDCA, replicates
# [14] = 10 μM and 25 μM, in the presence of 50 μM CDCA, HEK 293T
# [15] = 10 μM compound in the presence of 50 μM CDCA, DMSO 0%, 50 μM CDCA 100%, HEK 293T, replicates
# [16] = 25 μM compound in the presence of 50 μM CDCA, DMSO 0%, 50 μM CDCA 100%, HEK 293T, replicates
smiles,measurement,setting,value
"CC(=O)c1cc2c(cc1C)C(C)(C)C(C)CC2(C)C (stereo not drawn) [AHTN, tonalid]",activity at 1.95 µM,[1]; [4],96.2%
same,activity at 3.9 µM,[1]; [5],93.9%
same,activity at 31.25 µM,[1]; [6],80.9%
same,"Relative activity, antagonist mode",[1],48.54%
same,activity at 62.5 µM,[1]; [7],61.4%
same,activity at 250 µM,[1]; [8],31.2%
same,pIC50,[1],4.23
same,activity at 0.98 µM,[1],93.5%
same,activity at 7.8 µM,[1],94.1%
same,activity at 125 µM,[1],41.4%
same,activity at […],[1],89.3%
same,Luciferase activity compared with DMSO control (in words),[2],significantly less luciferase activity
same,activity at 25 µM,"[2]; HEK-293T, read-out: Relative luciferase activity (%)",40.1%
same,"Relative activity, agonist mode",[3],2.19%
"CCCCOC(=O)CC(CC(=O)OCCCC)(OC(C)=O)C(=O)OCCCC [ATBC, acetyl tributyl citrate]","Relative activity, antagonist mode",[1],12.58%
same,"Relative activity, agonist mode",[3]; [9],2.49%
"CC(C)(C)c1cc(C=O)cc(C(C)(C)C)c1O [BHT-C, 3,5-Ditert-butyl-4-hydroxybenzaldehyde]","Relative activity, antagonist mode",[1],6.36%
same,"Relative activity, agonist mode",[3]; [9],0.19%
"CCCCC(CC)COC(=O)c1ccccc1C(=O)OCC(CC)CCCC (stereo not drawn) [DEHP, bis(2-ethylhexyl) phthalate]","Relative activity, antagonist mode",[1],4.48%
same,"Relative activity, agonist mode",[3],0.27%
COc1cccc(Cn2cc(C(=O)Nc3ccc(C)c(S(=O)(=O)N4CCOCC4)c3)c(-c3ccc(C)cc3)n2)c1 [DY268],"Relative activity, antagonist mode",[1],100.00%
same,Relative luciferase activity (%),"[2]; 0.001 μM, dose-response, replicates",91.11% and 96.02% and 92.43%
same,Relative luciferase activity (%),"[2]; 0.01 μM, dose-response, replicates",84.90% and 84.00% and 97.07%
same,Relative luciferase activity (%),"[2]; 0.05 μM, dose-response, replicates",69.60% and 78.44% and 89.94%
same,Relative luciferase activity (%),"[2]; 0.1 μM, dose-response, replicates",57.18% and 63.12% and 63.84%
same,Relative luciferase activity (%),"[2]; 0.5 μM, dose-response, replicates",12.17% and 13.75% and 19.14%
same,Relative luciferase activity (%),"[2]; 1 μM, dose-response, replicates",-1.72% and -0.13% and 6.23%
same,Relative luciferase activity (%),"[2]; 5 μM, dose-response, replicates",-18.25% and -19.25% and -13.03%
same,Relative luciferase activity (%),"[2]; 10 μM, dose-response, replicates",-15.95% and -18.33% and -14.15%
same,Rate of FXR inhibition at the maximum exposure concentration,"[2]; HEK 293T DLR assay, maximum exposure concentration",116.14%
same,pIC50,"[2]; HEK 293T cell-based DLR assay, read-out: IC50, inhibition of FXR transcriptional activity",6.60
"O=C1Nc2ccc(Cl)cc2[C@@](C#CC2CC2)(C(F)(F)F)O1 [EFV, efavirenz]",Relative antagonist activity (%),[1]; [10],83.56% and 97.08%
same,activity at 0.98 µM,[1]; [10],100%
same,Relative antagonist activity (%),[1]; [4],96.79% and 93.64%
same,activity at 1.95 µM,[1]; [4],101%
same,Relative antagonist activity (%),[1]; [5],97.17% and 94.87%
same,activity at 3.9 µM,[1]; [5],94.6%
same,Relative antagonist activity (%),[1]; [11],92.66% and 89.45%
same,activity at 7.8 µM,[1]; [11],91%
same,Relative antagonist activity (%),[1]; [6],63.55% and 62.84%
same,activity at 31.25 µM,[1]; [6],61.1%
same,"Relative activity, antagonist mode",[1],80.64%
same,Relative antagonist activity (%),[1]; [7],18.58% and 19.89%
same,activity at 62.5 µM,[1]; [7],20.8%
same,Relative antagonist activity (%),[1]; [12],-1.08% and -0.91% and -0.84%
same,Relative antagonist activity (%),[1]; [8],-2.04% and -2.11% and -2.16%
same,activity at […],[1]; [13],82%
same,pIC50,[1],4.39
same,Luciferase activity compared with DMSO control (in words),[2]; [14],significantly less luciferase activity
same,Relative luciferase activity (%),[2]; [15],29.3% and 36.3%
same,Relative luciferase activity (%),[2]; [16],36.4% and 33.0% and 15.9%
same,activity at 10 µM,"[2]; HEK-293T, 10 μM compound in the presence of 50 μM CDCA, DMSO 0%, 50 μM CDCA 100%, HEK 293T, replicates, read-out: Relative luciferase activity (%)",26.9%
same,"Relative activity, agonist mode",[3]; [9],1.60%
"N#Cc1nn(-c2c(Cl)cc(C(F)(F)F)cc2Cl)c(N)c1S(=O)(=O)C(F)(F)F [FIP-S, fipronil sulfone]","Relative activity, antagonist mode",[1],13.98%
same,"Relative activity, agonist mode",[3],2.06%
"CC1COC(=O)c2cc3c(cc21)C(C)(C)C(C)C3(C)C (stereo not drawn) [GAX, galaxolidone]","Relative activity, antagonist mode",[1],14.46%
same,"Relative activity, agonist mode",[3],0.32%
"C/C=C1\C(=O)C[C@H]2[C@@H]3CCC4=CC(=O)CC[C@]4(C)[C@H]3CC[C@]12C [GS, guggulsterone]",activity at 0.01 µM,"[2]; HEK-293T, 0.01 μM, dose-response, replicates, read-out: Relative luciferase activity (%)",96.6%
same,activity at 0.1 µM,"[2]; HEK-293T, 0.1 μM, dose-response, replicates, read-out: Relative luciferase activity (%)",81%
same,activity at 0.5 µM,"[2]; HEK-293T, 0.5 μM, dose-response, replicates, read-out: Relative luciferase activity (%)",81%
same,activity at 1 µM,"[2]; HEK-293T, 1 μM, dose-response, replicates, read-out: Relative luciferase activity (%)",79.6%
same,activity at 5 µM,"[2]; HEK-293T, 5 μM, dose-response, replicates, read-out: Relative luciferase activity (%)",66.4%
same,activity at 10 µM,"[2]; HEK-293T, 10 μM, dose-response, replicates, read-out: Relative luciferase activity (%)",53.9%
same,activity at 25 µM,"[2]; HEK-293T, 25 μM, dose-response, replicates, read-out: Relative luciferase activity (%)",30.5%
same,activity at 50 µM,"[2]; HEK-293T, 50 μM, dose-response, replicates, read-out: Relative luciferase activity (%)",29.9%
"Clc1ccc(COC(Cn2ccnc2)c2ccc(Cl)cc2Cl)c(Cl)c1 (stereo not drawn) [MCZ, miconazole]",activity at 0.98 µM,[1]; [10],101%
same,activity at 1.95 µM,[1]; [4],96.5%
same,activity at 3.9 µM,[1]; [5],92.9%
same,activity at 7.8 µM,[1]; [11],77.8%
same,activity at 31.25 µM,[1]; [6],31.7%
same,activity at 62.5 µM,[1]; [7],15.9%
same,activity at 125 µM,[1]; [12],4.54%
same,activity at 250 µM,[1]; [8],2.51%
same,activity at […],[1]; [13],61.6%
same,pIC50,[1],4.69
same,Luciferase activity compared with DMSO control (in words),[2]; [14],significantly less luciferase activity
same,Relative luciferase activity (%),[2]; [15],93.6% and 60.3% and 85.8%
same,Relative luciferase activity (%),[2]; [16],77.5% and 67.2% and 91.8%
same,"Relative activity, agonist mode",[3]; [9],0.00%
"CCCCCCCCCCCCCCCC(=O)NCCO [PEA, palmitoyl ethanolamide]","Relative activity, antagonist mode",[1],3.94%
same,"Relative activity, agonist mode",[3]; [9],0.57%
"O=C(Nc1ccc(Cl)cc1)Nc1ccc(Cl)c(Cl)c1 [TCC, triclocarban]","Relative activity, antagonist mode",[1],10.80%
same,"Relative activity, agonist mode",[3],0.44%
"CCCCC(CC)COP(=O)(OCC(CC)CCCC)OCC(CC)CCCC (stereo not drawn) [TEHP, tris(2-ethylhexyl) phosphate]","Relative activity, antagonist mode",[1],17.25%
same,"Relative activity, agonist mode",[3],0.00%
"CC(C)(C)CC(C)(C)c1ccc(O)c(-n2nc3ccccc3n2)c1 [UV329, octrizole]","Relative activity, antagonist mode",[1],18.06%
same,"Relative activity, agonist mode",[3]; [9],0.085%
